What was measured:
[1] = system: PA-1 ovarian cancer cells; test: Cell growth inhibition, Sulforhodamine B assay, PA-1; format: cell-based; conditions: 120 h, 5 days culture, SRB assay, read-out: Cell Line GI50 Range PA-1
[2] = system: MDA-MB-231 breast cancer cells; test: Cell growth inhibition, Sulforhodamine B assay, MDA-MB-231; format: cell-based; conditions: Homo sapiens, 120 h, 5 days culture, SRB assay, read-out: Cell Line GI50 Range MDA-MB-231
[3] = target: T1, Aurora B (Homo sapiens, UniProt Q96GD4); test: Aurora B inhibition assay (Z-Lyte); format: biochemical; conditions: 28 nM Aurora B, 128 μM ATP; read-out: IC50 Ranges Aurora B
T1 construct: purchased Invitrogen PV3970
Description: Aurora B inhibition was determined using the Z-Lyte assay kit from Invitrogen. The assay was performed using the recommended manufacturer's instructions with 128 μM ATP and 28 nM Aurora B (Invitrogen cat #PV3970). The % inhibition values were determined according to the manufacturer's directions and IC50 values were obtained using a non-linear 4 point logistic curve fit (XLfit4, IDBS)

[4] = system: Ovarian TICs, 2393A ovarian; test: Ovarian tumor-initiating cell growth inhibition (Alamar Blue); format: cell-based; conditions: 144 h, 6 days, read-out: GI50 range 2393A ovarian
[5] = system: HT29 colon cancer cells; test: Cell growth inhibition, Sulforhodamine B assay, HT29; format: cell-based; conditions: Homo sapiens, HT-29, 120 h, 5 days culture, SRB assay, read-out: Cell Line GI50 Range HT29
[6] = system: OVCAR-3 ovarian cancer cells; test: Cell growth inhibition, Sulforhodamine B assay, OVCAR-3; format: cell-based; conditions: Homo sapiens, 120 h, 5 days culture, SRB assay, read-out: Cell Line GI50 Range OVCAR-3
[7] = system: HCT116 colon cancer cells; test: Cell growth inhibition, Sulforhodamine B assay, HCT116; format: cell-based; conditions: Homo sapiens, HCT-116, 120 h, 5 days culture, SRB assay, read-out: Cell Line GI50 Range HCT116
[8] = system: MDA-MB-468 breast cancer cells; test: Cell growth inhibition, Sulforhodamine B assay, MDA-MB-468; format: cell-based; conditions: Homo sapiens, 120 h, 5 days culture, SRB assay, read-out: Cell Line GI50 Range MDA-MB-468
[9] = target: T2, human TTK (Homo sapiens, UniProt P33981); test: TTK inhibition assay (indirect ELISA); format: biochemical; conditions: GST-TTK 0.68 nM, 16 μM ATP; read-out: IC50 Ranges TTK
T2 construct: amino terminal GST fusion of full length human TTK; purchased Invitrogen
T2 sequence (P33981 1-857): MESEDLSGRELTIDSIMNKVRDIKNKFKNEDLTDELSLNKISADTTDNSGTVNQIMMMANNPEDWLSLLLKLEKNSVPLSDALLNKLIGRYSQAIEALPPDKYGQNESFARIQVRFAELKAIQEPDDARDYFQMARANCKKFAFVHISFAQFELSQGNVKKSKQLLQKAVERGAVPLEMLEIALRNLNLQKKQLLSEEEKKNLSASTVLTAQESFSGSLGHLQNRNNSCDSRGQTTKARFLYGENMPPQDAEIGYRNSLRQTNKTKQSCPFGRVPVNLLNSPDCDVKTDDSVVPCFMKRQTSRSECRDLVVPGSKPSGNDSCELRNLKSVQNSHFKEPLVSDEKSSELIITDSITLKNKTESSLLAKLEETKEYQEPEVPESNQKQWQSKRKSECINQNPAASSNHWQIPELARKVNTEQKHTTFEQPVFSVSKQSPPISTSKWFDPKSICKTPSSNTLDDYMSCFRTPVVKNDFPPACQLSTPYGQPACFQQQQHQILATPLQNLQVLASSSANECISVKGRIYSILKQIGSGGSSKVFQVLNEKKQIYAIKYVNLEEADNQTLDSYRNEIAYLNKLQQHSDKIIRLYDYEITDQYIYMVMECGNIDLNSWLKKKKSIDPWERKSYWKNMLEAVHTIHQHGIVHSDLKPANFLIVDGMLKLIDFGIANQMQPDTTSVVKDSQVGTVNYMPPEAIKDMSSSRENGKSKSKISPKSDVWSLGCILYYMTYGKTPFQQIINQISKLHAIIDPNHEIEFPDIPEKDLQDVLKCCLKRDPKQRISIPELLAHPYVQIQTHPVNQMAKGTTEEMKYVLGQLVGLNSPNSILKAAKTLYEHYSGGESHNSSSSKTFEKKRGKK

[10] = system: Colon tumor initiating cells (TICs), 12 colon; test: Colon tumor-initiating cell growth inhibition (Alamar Blue); format: cell-based; conditions: 216 h, 9 days, read-out: GI50 range 12 colon
[11] = target: T3, human PLK4 (Homo sapiens, UniProt O00444); test: PLK4 inhibition assay (indirect ELISA); format: biochemical; conditions: GST-PLK4 4 nM, 15 μM ATP; read-out: IC50 Ranges PLK4
T3 construct: amino terminal GST fusion of residues 1-391 of human PLK4; made in house; host or cells: E. coli
T3 sequence (O00444 1-391): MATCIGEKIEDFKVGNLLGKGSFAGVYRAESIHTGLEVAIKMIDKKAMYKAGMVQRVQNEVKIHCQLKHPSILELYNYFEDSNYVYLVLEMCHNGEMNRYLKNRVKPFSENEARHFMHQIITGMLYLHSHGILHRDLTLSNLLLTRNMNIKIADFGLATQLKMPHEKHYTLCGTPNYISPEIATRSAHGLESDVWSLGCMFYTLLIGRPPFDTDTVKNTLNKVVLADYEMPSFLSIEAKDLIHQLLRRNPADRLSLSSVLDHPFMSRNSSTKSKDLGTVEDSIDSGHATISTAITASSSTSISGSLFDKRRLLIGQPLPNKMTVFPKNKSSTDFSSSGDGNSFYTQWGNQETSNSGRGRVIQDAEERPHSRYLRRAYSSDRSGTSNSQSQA
Method in brief: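 Dephosphorylated GST-tagged human PLK4 (residues 1-391, E. coli), 4 nM, preincubated 15 min with compound, then reacted 30 min with 15 μM ATP on MBP-coated plates (50 mM HEPES pH 7.5, 10 mM MgCl2, 0.01% Brij 35). Phospho-MBP detected by antibody ELISA at 450 nm. Tested at 10 μM or 10-point titrations; IC50 from 4-parameter logistic fit.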

T1 sequence (Q96GD4 whole entry): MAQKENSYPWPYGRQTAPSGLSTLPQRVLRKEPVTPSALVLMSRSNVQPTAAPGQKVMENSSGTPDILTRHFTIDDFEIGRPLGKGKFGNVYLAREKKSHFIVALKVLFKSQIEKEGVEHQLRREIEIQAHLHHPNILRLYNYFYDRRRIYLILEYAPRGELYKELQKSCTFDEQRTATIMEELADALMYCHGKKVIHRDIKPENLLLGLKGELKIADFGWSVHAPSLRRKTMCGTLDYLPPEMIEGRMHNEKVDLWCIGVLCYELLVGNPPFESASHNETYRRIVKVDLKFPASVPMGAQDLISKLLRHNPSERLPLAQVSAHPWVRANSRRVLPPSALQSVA

Compound	GI50 [1]	GI50 [2]	IC50 [3]	GI50 [4]	GI50 [5]	GI50 [6]	GI50 [7]	GI50 [8]	IC50 [9]	GI50 [10]	IC50 [11]
CN1CCC(Oc2ccc(-c3n[nH]c4ccc(C(=O)NC(c5ccccc5Cl)C5CC5)cc34)cc2)CC1 (stereo not drawn) [Example A150, N-((2-chlorophenyl)(cyclopropyl)methyl)-3-(4-((1-methylpiperidin-4-yl)oxy)phenyl)-1H-indazole-5-carboxamide]	≤ 5 µM	≤ 5 µM	≤ 5 µM	≤ 5 µM	≤ 5 µM	≤ 5 µM	≤ 5 µM	≤ 5 µM	≤ 5 µM	≤ 5 µM	≤ 5 µM
CN1CCC(Oc2ccc(-c3n[nH]c4ccc(C(=O)NC(c5ccccc5)C5CC5)cc34)cc2Cl)CC1 (stereo not drawn) [Example A188, 3-(3-chloro-4-((1-methylpiperidin-4-yl)oxy)phenyl)-N-(cyclopropyl(phenyl)methyl)-1H-indazole-5-carboxamide]	≤ 5 µM	≤ 5 µM	≤ 5 µM	≤ 5 µM		≤ 5 µM	≤ 5 µM	≤ 5 µM	≤ 5 µM	≤ 5 µM	≤ 5 µM
CN1CCC(Oc2ccc(-c3n[nH]c4ccc(C(=O)NC(c5ccccc5)C5CCCCC5)cc34)cc2)CC1 (stereo not drawn) [Example A170, N-(cyclohexyl(phenyl)methyl)-3-(4-((1-methylpiperidin-4-yl)oxy)phenyl)-1H-indazole-5-carboxamide]	≤ 5 µM	≤ 5 µM		≤ 5 µM	≤ 5 µM	≤ 5 µM	≤ 5 µM	≤ 5 µM	≤ 5 µM	≤ 5 µM	≤ 5 µM
O=C(Nc1ccc2[nH]nc(-c3ccc(OC4CN(C5COC5)C4)cc3)c2c1)C(c1ccsc1)N1CCCC1 (stereo not drawn) [Example A189, N-(3-(4-((1-(oxetan-3-yl)azetidin-3-yl)oxy)phenyl)-1H-indazol-5-yl)-2-(pyrrolidin-1-yl)-2-(thiophen-3-yl)acetamide]	≤ 5 µM	5 to 20 µM	≤ 5 µM	≤ 5 µM		20 to 50 µM	≤ 5 µM	≤ 5 µM	≤ 5 µM	≤ 5 µM	≤ 5 µM
COC[C@@H](NC(=O)c1ccc2[nH]nc(-c3ccc(OC4CCN(C)CC4)cc3)c2c1)c1ccccc1 [Example A173, (S)—N-(2-methoxy-1-phenylethyl)-3-(4-((1-methylpiperidin-4-yl)oxy)phenyl)-1H-indazole-5-carboxamide]	≤ 5 µM	≤ 5 µM		≤ 5 µM	≤ 5 µM	5 to 20 µM	≤ 5 µM	≤ 5 µM	≤ 5 µM	≤ 5 µM	≤ 5 µM

Second part, the compound after the results:

GI50 [1]	GI50 [2]	IC50 [3]	GI50 [4]	GI50 [5]	GI50 [6]	GI50 [7]	GI50 [8]	IC50 [9]	GI50 [10]	IC50 [11]	Compound
≤ 5 µM	≤ 5 µM	≤ 5 µM	≤ 5 µM	≤ 5 µM	≤ 5 µM	≤ 5 µM	≤ 5 µM	≤ 5 µM	≤ 5 µM	≤ 5 µM	Cc1ccccc1C(C(=O)Nc1ccc2[nH]nc(-c3ccc(OC4CCN(C)CC4)cc3)c2c1)N1CCCC1 (stereo not drawn) [Example A133, N-(3-(4-((1-methylpiperidin-4-yl)oxy)phenyl)-1H-indazol-5-yl)-2-(pyrrolidin-1-yl)-2-(o-tolyl)acetamide]
≤ 5 µM	≤ 5 µM	≤ 5 µM	≤ 5 µM	≤ 5 µM	≤ 5 µM	≤ 5 µM	≤ 5 µM	≤ 5 µM	≤ 5 µM	≤ 5 µM	CN1CCC(Oc2ccc(-c3n[nH]c4ccc(C(=O)NC(c5ccccc5F)C5CC5)cc34)cc2)CC1 (stereo not drawn) [Example A136, N-(cyclopropyl(2-fluorophenyl)methyl)-3-(4-((1-methylpiperidin-4-yl)oxy)phenyl)-1H-indazole-5-carboxamide]
≤ 5 µM	≤ 5 µM	≤ 5 µM	≤ 5 µM	≤ 5 µM	≤ 5 µM	≤ 5 µM	≤ 5 µM	≤ 5 µM	≤ 5 µM	≤ 5 µM	CN1CCC(Oc2ccc(-c3n[nH]c4ccc(C(=O)N[C@@H](c5sccc5Cl)C5CC5)cc34)cc2)CC1 [Example A166, (R)—N-((3-chlorothiophen-2-yl)(cyclopropyl)methyl)-3-(4-((1-methylpiperidin-4-yl)oxy)phenyl)-1H-indazole-5-carboxamide]
≤ 5 µM	≤ 5 µM	≤ 5 µM	≤ 5 µM	≤ 5 µM	≤ 5 µM	≤ 5 µM	≤ 5 µM	≤ 5 µM	≤ 5 µM	≤ 5 µM	CC(C)C(NC(=O)c1ccc2[nH]nc(-c3ccc(OC4CCN(C)CC4)cc3)c2c1)c1ccccc1Cl (stereo not drawn) [Example A144, N-(1-(2-chlorophenyl)-2-methylpropyl)-3-(4-((1-methylpiperidin-4-yl)oxy)phenyl)-1H-indazole-5-carboxamide]
≤ 5 µM	≤ 5 µM	≤ 5 µM	≤ 5 µM	≤ 5 µM	≤ 5 µM	≤ 5 µM	≤ 5 µM	≤ 5 µM	≤ 5 µM	≤ 5 µM	CN1CCC(Oc2ccc(-c3n[nH]c4ccc(C(=O)NC(c5ccsc5)C5CCCC5)cc34)cc2)CC1 (stereo not drawn) [Example A110, N-(cyclopentyl(thiophen-3-yl)methyl)-3-(4-((1-methylpiperidin-4-yl)oxy)phenyl)-1H-indazol-5-carboxamide]
≤ 5 µM	≤ 5 µM	≤ 5 µM	≤ 5 µM	≤ 5 µM	≤ 5 µM	≤ 5 µM	≤ 5 µM	≤ 5 µM	≤ 5 µM	≤ 5 µM	Cc1ccccc1C(NC(=O)c1ccc2[nH]nc(-c3ccc(OC4CCN(C)CC4)cc3)c2c1)C1CC1 (stereo not drawn) [Example A132, N-(cyclopropyl(o-tolyl)methyl)-3-(4-((1-methylpiperidin-4-yl)oxy)phenyl)-1H-indazole-5-carboxamide]

Reference: patent US20140051679A1, “KINASE INHIBITORS AND METHOD OF TREATING CANCER WITH SAME” (UNIVERISTY HEALTH NETWORKS, priority 2011, published 2014)
